Test results reported in US20110152342A1, “STABILIZED PHARMACEUTICAL COMPOSITION” (priority 2008, published 2011).

Experiment: Critical relative humidity of sugar alcohols determined at 37° C.
Assay type: physicochemical
Conditions: lowest humidity at which an increase in moisture content is observed after 72 hours
Description: As such sugar alcohol, preferably used herein include those having a critical relative humidity as determined at 37° C. of not less than 70% and further preferably used herein are those having a critical relative humidity as determined at 37° C. of not less than 85%. […] For instance, the critical relative humidity can be determined by introducing samples (obtained after drying at 80° C. overnight) of about 1 g each into weighing bottles, placing them in thermo-hygrostats which have been set at the following relative humidity (RH) values: 37° C./40% RH, 37° C./45% RH, 37° C./55% RH, 37° C./65% RH, 37° C./70% RH, 37° C./75% RH, 37° C./80% RH, 37° C./85% RH, 37° C./90% RH, 37° C./95% RH and 37° C./98% RH, respectively (all of the chambers are of the same type: ETAC FX201P), allowing them to stand under such conditions over 72 hours, calculating the increase in the moisture content of each sample at this stage, and determining the lowest humidity at which an increase in the moisture content is observed, the resulting lowest humidity being defined to be the critical relative humidity of the sugar alcohol thus tested. […] The examples of such sugar alcohols having a critical relative humidity, as determined at 37° C., of not less than 70% are erythritol, xylitol, mannitol, maltitol, lactitol, and the like. […]

Structure (SMILES)	critical relative humidity
OC[C@@H](O)[C@@H](O)[C@H](O)[C@H](O)CO [mannitol]	not less than 98%
OC[C@@H](O)[C@@H](O)[C@H](O)[C@@H](O)CO [sorbitol]	65%
